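Each compound was tested at five concentrations against cells in 96-well plates for 48 hours. Here, GI50 denotes the concentration required for 50% inhibition of growth.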 The source made the active and inactive calls. No stated cut-off is given here; in the data, active = GI50 up to about 1.1 µM and inactive = higher. Non-standard residues stand in square brackets, D forms with d. Residues, ends and D or L forms follow the SMILES beside them. ξ: configuration not given here. Pen = CC(C)(S)[C@H](N)C(=O)O; ξL = CC(C)CC(N)C(=O)O

We go through twelve compounds from ChEMBL document CHEMBL1201862, “PubChem BioAssay data set” (2004).

Some test systems named below: A549; ACHN; CAKI-1; CCRF-CEM; EKVX; HOP-62; HOP-92; HT-29; LOX IMVI; M14; NCI-H226; OVCAR-8; RPMI-8226; SF-539; SK-MEL-28; SK-MEL-5; UO-31; SR; NCI/ADR-RES; MCF7.
What all share (assay): growth of human tumour cells (NCI), 48 h

For the compound `CCOC(=O)C(=O)NC12CC3CC(CC(C3)C1)C2`, the GI50 in the test on A549, in the test with ACHN, with CAKI-1, with CCRF-CEM, in the test with EKVX and in the test with HOP-62 was > 100 µM (inactive) throughout. Also, the GI50 in the test on HOP-92 was > 100 µM (inactive); in the test with HT-29, > 100 µM (inactive); with LOX IMVI, 0.208 µM (active); in the test with M14, > 100 µM (inactive); in the test on NCI-H226 it was > 100 µM (inactive); with OVCAR-8 it was > 100 µM (inactive). Further, the GI50 with RPMI-8226, in the test on SF-539, with SK-MEL-28, in the test on SK-MEL-5 and with UO-31 was > 100 µM (inactive) in each case.
Turning to `O=C(OCc1ccccc1)OOC(=O)OCc1ccccc1`, the GI50 with A549, in the test with ACHN, in the test with CAKI-1, with CCRF-CEM, in the test on EKVX and with HOP-62 was > 100 µM (inactive) in each case. The GI50 with HOP-92, in the test with HT-29, in the test with M14, in the test on RPMI-8226, in the test on SF-539 and with SK-MEL-28 was > 100 µM (inactive) in each case. The GI50 with SK-MEL-5, in the test on SR and in the test on UO-31 was > 100 µM (inactive) throughout.
Regarding `N/N=C(\C(=O)Nc1c(Cl)cc([N+](=O)[O-])cc1Cl)C(c1cnc2ccc([N+](=O)[O-])cc2n1)[N+](=O)[O-]` (centres undefined), the GI50 is > 100 µM (inactive) in the test on A549; > 100 µM (inactive) in the test on ACHN; 66.1 µM (inactive) with CAKI-1; 77.1 µM (inactive) in the test on CCRF-CEM; 37.8 µM (inactive) in the test with EKVX; > 100 µM (inactive) in the test with HOP-62. The GI50 in the test on HOP-92 was > 100 µM (inactive); in the test on HT-29, > 100 µM (inactive); in the test on LOX IMVI, > 100 µM (inactive); in the test on NCI-H226, 6.71 µM (inactive); in the test on OVCAR-8, > 100 µM (inactive); in the test on RPMI-8226 it was 42.8 µM (inactive). Also, the GI50 is > 100 µM (inactive) in the test on SF-539; > 100 µM (inactive) in the test on SK-MEL-28; > 100 µM (inactive) in the test on SK-MEL-5; > 100 µM (inactive) in the test on SR; 87.7 µM (inactive) in the test with UO-31.
Regarding `Cc1ccnc2nc(N)ccc12`, the GI50 with A549, in the test with ACHN, in the test with CAKI-1, in the test on CCRF-CEM, in the test on EKVX and in the test with HT-29 was > 100 µM (inactive) each time. Moreover, the GI50 in the test with M14, with NCI-H226, in the test on NCI/ADR-RES, in the test with OVCAR-8, with RPMI-8226 and with SF-539 was > 100 µM (inactive) throughout. For the same compound, the GI50 with SK-MEL-28, with SK-MEL-5, in the test with SR and with UO-31 was > 100 µM (inactive) in each case.
As for `O=C(CC/C=C(/CS(=O)(=O)c1ccccc1)S(=O)(=O)c1ccccc1)c1ccccc1`, the GI50 in the test on A549 was > 100 µM (inactive); with ACHN, > 100 µM (inactive); in the test with CCRF-CEM it was 12.1 µM (inactive); in the test on EKVX, > 100 µM (inactive); in the test with HOP-62, > 100 µM (inactive); in the test on HOP-92, > 100 µM (inactive). Further, the GI50 was 75 µM (inactive) in the test with HT-29; > 100 µM (inactive) in the test with LOX IMVI; > 100 µM (inactive) in the test on M14; > 100 µM (inactive) in the test on NCI-H226; > 100 µM (inactive) in the test on OVCAR-8; > 100 µM (inactive) in the test on RPMI-8226. Besides, the GI50 in the test on SF-539 was > 100 µM (inactive); in the test with SK-MEL-28 it was > 100 µM (inactive); with SK-MEL-5 it was > 100 µM (inactive); with SR, 56.8 µM (inactive); with UO-31 it was > 100 µM (inactive).
Turning to `C[Si](C)(C)/C(I)=C/CO`, the GI50 is 24.1 µM (inactive) in the test on A549; 17 µM (inactive) in the test on ACHN; 22 µM (inactive) in the test on CCRF-CEM; 29.9 µM (inactive) with EKVX; 24 µM (inactive) with HOP-92; 20.5 µM (inactive) with HT-29. Further, the GI50 in the test on LOX IMVI was 19.3 µM (inactive); in the test on M14, 35.2 µM (inactive); in the test with NCI-H226, 20.4 µM (inactive); in the test on OVCAR-8, 29.7 µM (inactive); in the test on RPMI-8226, 17.4 µM (inactive); with SF-539, 20 µM (inactive). For the same compound, the GI50 in the test on SK-MEL-28 is 27.9 µM (inactive); with SK-MEL-5 it was 19 µM (inactive); in the test on UO-31, 34.4 µM (inactive).
For the compound `O=C1C2C3C=C4c5ccccc5N(c5ccccc5)C4(C2C(=O)N1Cc1ccccc1)C1C(=O)N(Cc2ccccc2)C(=O)C31` (centres undefined), the GI50 was > 100 µM (inactive) in the test on A549; > 100 µM (inactive) in the test with ACHN; > 10 µM (inactive) in the test on CAKI-1; > 100 µM (inactive) in the test on CCRF-CEM; > 10 µM (inactive) in the test with HOP-62; 39.5 µM (inactive) with HOP-92. Also, the GI50 in the test with HT-29 is > 100 µM (inactive); in the test with LOX IMVI it was 78.9 µM (inactive); in the test on M14 it was > 10 µM (inactive); in the test with OVCAR-8, 39.4 µM (inactive); in the test with SF-539, > 100 µM (inactive); in the test with SK-MEL-28, > 100 µM (inactive). Besides, the GI50 with SR and with UO-31 was > 100 µM (inactive) in each case.
In the case of `C[n+]1[se]c2ccccc2c1Cl`, the GI50 in the test on A549 was 32 µM (inactive); in the test on ACHN, > 48.8 µM (inactive); in the test with CAKI-1, > 41.8 µM (inactive); in the test on CCRF-CEM, 8.67 µM (inactive); with EKVX, 24.1 µM (inactive); in the test with HOP-62, > 40.7 µM (inactive). The GI50 in the test with HOP-92 was 7.31 µM (inactive); in the test on HT-29, 28.4 µM (inactive); with LOX IMVI, 19.9 µM (inactive); in the test with M14, 13.7 µM (inactive); in the test on NCI-H226, 25.6 µM (inactive); in the test on OVCAR-8, 45 µM (inactive). The GI50 is 33.1 µM (inactive) in the test on RPMI-8226; 19.3 µM (inactive) in the test on SF-539; 23.4 µM (inactive) in the test with SK-MEL-28; 16.6 µM (inactive) with SK-MEL-5; 24.8 µM (inactive) in the test with UO-31.
As for `O=S1(=O)CC#CC[C@@H](CO)[C@@H](CO)CC#CC1`, the GI50 in the test with A549 is > 100 µM (inactive); with ACHN, > 100 µM (inactive); with CCRF-CEM, 22.5 µM (inactive); with EKVX, > 100 µM (inactive); with HOP-62 it was > 100 µM (inactive); with HOP-92, 31.5 µM (inactive). Further, the GI50 in the test on HT-29 was > 100 µM (inactive); in the test with LOX IMVI, 69.3 µM (inactive); in the test with M14, 40.1 µM (inactive); in the test on OVCAR-8, > 100 µM (inactive); in the test on SF-539, > 100 µM (inactive); with SK-MEL-28, 72.3 µM (inactive). Also, the GI50 is > 100 µM (inactive) with SK-MEL-5, 38.7 µM (inactive) with SR and > 100 µM (inactive) in the test on UO-31.
`C=C(CS(=O)(=O)c1ccccc1)[P+](c1ccccc1)(c1ccccc1)c1ccccc1`: the GI50 was 34.3 µM (inactive) in the test on A549; 21.7 µM (inactive) with ACHN; 23.4 µM (inactive) with CAKI-1; 5.22 µM (inactive) in the test on CCRF-CEM; 30.4 µM (inactive) in the test with EKVX; 28.1 µM (inactive) with HOP-62. Besides, the GI50 is 24.5 µM (inactive) in the test on HOP-92; 18.2 µM (inactive) with HT-29; 13.5 µM (inactive) in the test on LOX IMVI; 17.4 µM (inactive) in the test on M14; 16.4 µM (inactive) with NCI-H226; 14.8 µM (inactive) with OVCAR-8. Besides, the GI50 is 3.06 µM (inactive) in the test on RPMI-8226; 23.5 µM (inactive) in the test with SF-539; 11.1 µM (inactive) with SK-MEL-28; 13.6 µM (inactive) with SK-MEL-5; 27.5 µM (inactive) with UO-31.
For `COC(=O)C(/C(=N/NC(N)=S)C(=O)Nc1ccccc1[N+](=O)[O-])c1cnc2ccccc2n1` (centres undefined), the GI50 with A549, in the test with ACHN, in the test with CAKI-1, with CCRF-CEM, with EKVX and in the test with HOP-62 was > 100 µM (inactive) each time. Also, the GI50 in the test on HOP-92, with HT-29, in the test with LOX IMVI, in the test on M14, with NCI-H226 and in the test with OVCAR-8 was > 100 µM (inactive) in each case. In addition, the GI50 with RPMI-8226, in the test with SF-539, with SK-MEL-28, in the test on SK-MEL-5, with SR and in the test with UO-31 was > 100 µM (inactive) in each case.
As to `CSCC[C@H](NC(=O)C(CC(C)C)NC(=O)[C@H](Cc1c[nH]cn1)NC(=O)CNC(=O)[C@@H](NC(=O)[C@@H](C)NC(=O)[C@H](Cc1c[nH]c2ccccc12)NC(=O)[C@H](CCC(N)=O)NC(=O)[C@@H](N)CC(N)=O)C(C)(C)SC)C(N)=O` (some centres undefined) (H-NQW[dA][Pen](Me)GH[ξL]M-NH2), the GI50 with A549, with CAKI-1, in the test on CCRF-CEM, in the test on EKVX, with HOP-62 and in the test with HOP-92 was > 100 µM (inactive) in each case. The GI50 in the test with HT-29, with LOX IMVI, in the test with MCF7, with NCI-H226, in the test on NCI/ADR-RES and in the test with OVCAR-8 was > 100 µM (inactive) throughout. Besides, the GI50 in the test with SF-539, in the test with SK-MEL-28, in the test with SK-MEL-5 and in the test with UO-31 was > 100 µM (inactive) each time.
